Values of other authors in patent US20260165989A1 (Société des Produits Nestlé S.A., priority 2024, published 2026).

Details: counter ion (base) for salt screening

## C[N+](C)(C)CC(=O)O [Betaine]
  pKa(s)*: 12.2
